In ChEMBL document CHEMBL3875185, “Structure-anticonvulsant activity studies in the group of (E)-N-cinnamoyl aminoalkanols derivatives monosubstituted in phenyl ring with 4-Cl, 4-CH3 or 2-CH3” (Bioorg Med Chem, 2017):
The source made the active and inactive calls. The calls are words filed in the database; no cut-off is given here.

Experiments:
[1] = tested on: Rattus norvegicus; assay: Neurotoxicity in Sprague-Dawley rat assessed as behavioral change at 30 mg/kg, po measured at 1 hr post dose; assay type: toxicity, organism-based; conditions: in vivo
[2] = tested on: Mus musculus; assay: Anticonvulsant activity in pentylenetetrazole induced seizure mouse model assessed as no observable episode of clonic convulsion of at least 5 secs at 300 mg/kg, ip measured at 0.5 hrs post dose; assay type: functional, organism-based
[3] = tested on: Mus musculus; assay: Neurotoxicity in mouse assessed as induction of motor impairment at 300 mg/kg, ip measured at 4 hrs post dose by rotarod method; assay type: toxicity, organism-based; conditions: in vivo
[4] = tested on: Mus musculus; assay: Anticonvulsant activity in 6-Hz induced seizure mouse model assessed as restoration of normal activity within 10 secs from stimulation at 100 mg/kg, ip at 32 mA measured at 0.5 hrs post dose; assay type: functional, organism-based
[5] = tested on: Mus musculus; assay: Neurotoxicity in mouse assessed as induction of motor impairment at 30 mg/kg, ip measured at 4 hrs post dose by rotarod method; assay type: toxicity, organism-based; conditions: in vivo
[6] = tested on: Rattus norvegicus; assay: Neurotoxicity in Sprague-Dawley rat assessed as behavioral change at 30 mg/kg, po measured at 4 hrs post dose; assay type: toxicity, organism-based; conditions: in vivo
[7] = tested on: Mus musculus; assay: Anticonvulsant activity in maximal electroshock induced seizure mouse model assessed as suppression in hindlimb tonic extension at 300 mg/kg, ip measured at 0.5 hrs post dose; assay type: functional, organism-based
[8] = tested on: Rattus norvegicus; assay: Neurotoxicity in Sprague-Dawley rat assessed as behavioral change at 30 mg/kg, po measured at […] post dose; assay type: toxicity, organism-based; conditions: in vivo
[9] = tested on: Mus musculus; assay: Neurotoxicity in mouse assessed as induction of motor impairment at 30 mg/kg, ip measured at 0.5 hrs post dose by rotarod method; assay type: toxicity, organism-based; conditions: in vivo
[10] = tested on: Rattus norvegicus; assay: Neurotoxicity in Sprague-Dawley rat assessed as behavioral change at 30 mg/kg, po measured at 2 hrs post dose; assay type: toxicity, organism-based; conditions: in vivo
[11] = tested on: Mus musculus; assay: Neurotoxicity in mouse assessed as induction of motor impairment at 100 mg/kg, ip measured at 4 hrs post dose by rotarod method; assay type: toxicity, organism-based; conditions: in vivo
[12] = tested on: Mus musculus; assay: Anticonvulsant activity in 6-Hz induced seizure mouse model assessed as restoration of normal activity within 10 secs from stimulation at 100 mg/kg, ip at 32 mA measured at […] post dose; assay type: functional, organism-based
[13] = tested on: Mus musculus; assay: Neurotoxicity in mouse assessed as induction of motor impairment at 100 mg/kg, ip measured at 0.5 hrs post dose by rotarod method; assay type: toxicity, organism-based; conditions: in vivo
[14] = tested on: Mus musculus; assay: Neurotoxicity in mouse assessed as induction of motor impairment at 300 mg/kg, ip measured at 0.5 hrs post dose by rotarod method; assay type: toxicity, organism-based; conditions: in vivo
[15] = tested on: Rattus norvegicus; assay: Neurotoxicity in Sprague-Dawley rat assessed as behavioral change at 30 mg/kg, po measured at 0.5 hrs post dose; assay type: toxicity, organism-based; conditions: in vivo
[16] = tested on: Mus musculus; assay: Anticonvulsant activity in maximal electroshock induced seizure mouse model assessed as suppression in hindlimb tonic extension at 100 mg/kg, ip measured at 0.5 hrs post dose; assay type: functional, organism-based
[17] = tested on: Rattus norvegicus; assay: Neurotoxicity in Sprague-Dawley rat assessed as behavioral change at 30 mg/kg, ip measured at […] post dose; assay type: toxicity, organism-based; conditions: in vivo
[18] = tested on: Rattus norvegicus; assay: Neurotoxicity in Sprague-Dawley rat assessed as behavioral change at 30 mg/kg, ip measured at 1 hr post dose; assay type: toxicity, organism-based; conditions: in vivo
[19] = tested on: Rattus norvegicus; assay: Neurotoxicity in Sprague-Dawley rat assessed as behavioral change at 30 mg/kg, ip measured at 2 hrs post dose; assay type: toxicity, organism-based; conditions: in vivo
[20] = tested on: Rattus norvegicus; assay: Neurotoxicity in Sprague-Dawley rat assessed as behavioral change at 30 mg/kg, ip measured at 0.5 hrs post dose; assay type: toxicity, organism-based; conditions: in vivo
[21] = tested on: Rattus norvegicus; assay: Neurotoxicity in Sprague-Dawley rat assessed as behavioral change at 30 mg/kg, ip measured at 4 hrs post dose; assay type: toxicity, organism-based; conditions: in vivo
[22] = tested on: Mus musculus; assay: Anticonvulsant activity in maximal electroshock induced seizure mouse model assessed as suppression in hindlimb tonic extension at 300 mg/kg, ip measured at 4 hrs post dose; assay type: functional, organism-based
[23] = tested on: Mus musculus; assay: Neurotoxicity in ip dosed mouse assessed as induction of motor impairment by measuring time to peak effect by rotarod method; assay type: toxicity, organism-based; conditions: in vivo
[24] = Protection index, ratio of TD50 for neurotoxicity in ip dosed mouse to ED50 for ip dosed maximal electroshock induced seizure mouse model; assay type: toxicity, organism-based; conditions: in vivo, read-out: Ratio TD50/ED50
[25] = tested on: Mus musculus; assay: Anticonvulsant activity in ip dosed maximal electroshock induced seizure mouse model assessed as suppression in hindlimb tonic extension; assay type: functional
[26] = tested on: Mus musculus; assay: Anticonvulsant activity in ip dosed maximal electroshock induced seizure mouse model assessed as suppression in hindlimb tonic extension by measuring time to peak effect; assay type: functional
[27] = Neurotoxicity in ip dosed mouse; assay type: toxicity, organism-based; conditions: in vivo
[28] = tested on: Mus musculus; assay: Anticonvulsant activity in maximal electroshock induced seizure mouse model assessed as suppression in hindlimb tonic extension at 30 mg/kg, ip measured at 0.5 hrs post dose; assay type: functional, organism-based
[29] = tested on: Rattus norvegicus; assay: Anticonvulsant activity in maximal electroshock induced seizure Sprague-Dawley rat model assessed as suppression in hindlimb tonic extension at 30 mg/kg, ip measured at […] post dose; assay type: functional, organism-based
[30] = tested on: Mus musculus; assay: Anticonvulsant activity in pentylenetetrazole induced seizure mouse model assessed as no observable episode of clonic convulsion of at least 5 secs at 100 mg/kg, ip measured at 0.5 hrs post dose; assay type: functional, organism-based
[31] = tested on: Mus musculus; assay: Anticonvulsant activity in ip dosed 6-Hz induced seizure mouse model assessed as restoration of normal activity within 10 secs from stimulation at 32 mA; assay type: functional
[32] = tested on: Mus musculus; assay: Anticonvulsant activity in ip dosed pentylenetetrazole induced seizure mouse model; assay type: functional
[33] = tested on: Rattus norvegicus; assay: Anticonvulsant activity in po dosed pentylenetetrazole induced seizure Sprague-Dawley rat model assessed as no observable episode of clonic convulsion of at least 5 secs; assay type: functional
[34] = tested on: Mus musculus; assay: Anticonvulsant activity in maximal electroshock induced seizure mouse model assessed as suppression in hindlimb tonic extension at 100 mg/kg, ip measured at 4 hrs post dose; assay type: functional, organism-based
[35] = tested on: Mus musculus; assay: Anticonvulsant activity in maximal electroshock induced seizure mouse model assessed as suppression in hindlimb tonic extension at 30 mg/kg, ip measured at 4 hrs post dose; assay type: functional, organism-based
[36] = tested on: Mus musculus; assay: Anticonvulsant activity in pentylenetetrazole induced seizure mouse model assessed as no observable episode of clonic convulsion of at least 5 secs at 300 mg/kg, ip measured at 4 hrs post dose; assay type: functional, organism-based

Structure (SMILES) | Activity [1] | Activity [2] | Activity [3] | Activity [5] | Activity [6] | Activity [7] | Activity [8] | Activity [9] | Activity [10] | Activity [11] | Activity [13] | Activity [14] | Activity [15] | Activity [16] | other results
Cc1ccccc1/C=C/C(=O)N[C@H](C)CO | Non-Toxic | Active | Non-Toxic | Non-Toxic | Non-Toxic | Active | Non-Toxic | Non-Toxic | Non-Toxic | Non-Toxic | Non-Toxic | Toxic | Non-Toxic | – | Activity [4]: Active; Activity [12]: Active
CC[C@@H](CO)NC(=O)/C=C/c1ccccc1C | Non-Toxic | Active | Non-Toxic | Non-Toxic | Non-Toxic | Active | Non-Toxic | Non-Toxic | Non-Toxic | Non-Toxic | Non-Toxic | Toxic | Non-Toxic | Active | –
CC[C@@H](CO)NC(=O)/C=C/c1ccc(C)cc1 | – | Active | Non-Toxic | Non-Toxic | – | Active | – | Non-Toxic | – | Non-Toxic | Non-Toxic | Toxic | – | – | –
CC(C)(CO)NC(=O)/C=C/c1ccc(Cl)cc1 | Non-Toxic | – | Non-Toxic | Non-Toxic | Non-Toxic | Active | Non-Toxic | Non-Toxic | Non-Toxic | Non-Toxic | Non-Toxic | – | Non-Toxic | – | Activity [17]: Non-Toxic; Activity [18]: Non-Toxic; Activity [19]: Non-Toxic; Activity [20]: Non-Toxic; Activity [21]: Non-Toxic; Activity [22]: Active
Cc1ccc(/C=C/C(=O)NCC(C)O)cc1 (configuration not stated) | – | Active | Non-Toxic | Non-Toxic | – | Active | – | Non-Toxic | – | Non-Toxic | Non-Toxic | Toxic | – | – | –
CC[C@H](CO)NC(=O)/C=C/c1ccc(Cl)cc1 | – | – | – | – | – | – | – | – | – | – | Toxic | – | – | Active | Time [23]: 0.25 h; selectivity ratio [24]: 3.85; ED50 [25]: 27.3 mg/kg; Time [26]: 0.25 h; TD50 [27]: 105 mg/kg
CCC(O)CNC(=O)/C=C/c1ccc(C)cc1 (configuration not stated) | – | – | – | – | – | – | – | – | – | Non-Toxic | Non-Toxic | – | – | – | Activity [17]: Non-Toxic; Activity [18]: Non-Toxic; Activity [19]: Non-Toxic; Activity [20]: Non-Toxic; Activity [21]: Non-Toxic
CCC(O)CNC(=O)/C=C/c1ccccc1C (configuration not stated) | Non-Toxic | Active | Non-Toxic | Non-Toxic | Non-Toxic | Active | Non-Toxic | – | Non-Toxic | Non-Toxic | – | Toxic | Non-Toxic | Active | Activity [28]: Active; Activity [4]: Active; Activity [17]: Non-Toxic; Activity [18]: Non-Toxic; Activity [19]: Non-Toxic; Activity [12]: Active; Activity [20]: Non-Toxic; Activity [21]: Non-Toxic; Activity [29]: Active
CC(CO)NC(=O)/C=C/c1ccc(Cl)cc1 (configuration not stated) | Non-Toxic | Active | – | Non-Toxic | Non-Toxic | Active | Non-Toxic | Non-Toxic | Non-Toxic | Non-Toxic | – | Toxic | Non-Toxic | Active | Activity [30]: Active; Activity [22]: Active
Cc1ccccc1/C=C/C(=O)NC1CCCCC1O (racemic) | – | – | Non-Toxic | Non-Toxic | – | Active | – | Non-Toxic | – | Non-Toxic | Non-Toxic | Non-Toxic | – | – | –
Cc1ccc(/C=C/C(=O)NC(C)CO)cc1 (configuration not stated) | Non-Toxic | Active | Non-Toxic | Non-Toxic | Non-Toxic | Active | Non-Toxic | Non-Toxic | Non-Toxic | Non-Toxic | Non-Toxic | Toxic | Non-Toxic | Active | –
NC(=O)N1c2ccccc2C=Cc2ccccc21 [CARBAMAZEPINE] | – | – | – | – | – | – | – | – | – | – | – | – | – | – | ED50 [31]: 47.9 mg/kg; ED50 [32]: > 50 mg/kg; ED50 [33]: > 250 mg/kg
Cc1ccccc1/C=C/C(=O)NC(C)CO (configuration not stated) | Non-Toxic | Active | Non-Toxic | Non-Toxic | Non-Toxic | Active | Non-Toxic | Non-Toxic | Non-Toxic | Non-Toxic | – | Toxic | Non-Toxic | Active | –
Cc1ccccc1/C=C/C(=O)N[C@H]1CC[C@H](O)CC1 | Non-Toxic | – | Non-Toxic | Non-Toxic | Non-Toxic | – | Non-Toxic | Non-Toxic | Non-Toxic | – | – | – | Non-Toxic | – | Activity [34]: Active; Activity [35]: Active; Activity [22]: Active
Cc1ccccc1/C=C/C(=O)NCC(C)O (configuration not stated) | – | Active | – | Non-Toxic | – | Active | – | Non-Toxic | – | Non-Toxic | – | Toxic | – | Active | Activity [30]: Active; Activity [22]: Active
CC[C@@H](CO)NC(=O)/C=C/c1ccc(Cl)cc1 | – | – | – | – | – | – | – | – | – | – | Toxic | – | – | Active | Time [23]: 0.25 h; selectivity ratio [24]: 1.3; ED50 [25]: 43.3 mg/kg; Time [26]: 0.25 h; TD50 [27]: 56.4 mg/kg
CCC(O)CNC(=O)/C=C/c1ccc(Cl)cc1 (configuration not stated) | – | Active | Toxic | Non-Toxic | – | Active | – | Non-Toxic | – | Non-Toxic | – | Toxic | – | – | Activity [36]: Active; Activity [30]: Active; Activity [22]: Active
Cc1ccc(/C=C/C(=O)NC2CCCCC2O)cc1 (racemic) | – | – | – | – | – | – | – | – | – | Non-Toxic | Non-Toxic | – | – | – | –
